Test results: ChEMBL document CHEMBL3885881, “DrugMatrix”

Species: Rattus norvegicus
Test: DrugMatrix - Regimen: Daily Repeat
Assay type: toxicity, organism-based, Sprague-Dawley
Parameters: regimen Daily Repeat, gender Male, age 6-8 weeks
Details: in vivo, po, route oral GAVAGE, vehicle .5 % CMC; for ABSOLUTE BASOPHIL / ABSOLUTE EOSINOPHIL / ABSOLUTE LYMPHOCYTE / ABSOLUTE MONOCYTE / ABSOLUTE SEGMENTED NEUTROPHIL / BASOPHIL / EOSINOPHIL / ERYTHROCYTE COUNT / HEMATOCRIT / HEMOGLOBIN / LEUKOCYTE COUNT / LYMPHOCYTE / MEAN CORPUSCULAR HEMOGLOBIN / MEAN CORPUSCULAR HEMOGLOBIN CONCENTRATION / MEAN CORPUSCULAR VOLUME / MONOCYTE / NEUTROPHIL / NUCLEATED RED BLOOD CELLS / PLATELET COUNT: tissue Blood; for ALANINE AMINOTRANSFERASE / ALBUMIN / ALKALINE PHOSPHATASE / ASPARTATE AMINOTRANSFERASE / BLOOD UREA NITROGEN / CARBON DIOXIDE / CHLORIDE / CHOLESTEROL / CREATINE PHOSPHOKINASE / CREATININE / GLUCOSE / LACTATE DEHYDROGENASE / LIPASE / PHOSPHORUS / POTASSIUM / SODIUM / TOTAL BILIRUBIN / TOTAL PROTEIN / URIC ACID: tissue Plasma
[1] = 300 mg/kg, 72 h, dose level Low, time 3 day
[2] = 300 mg/kg, 120 h, dose level Low, time 5 day
[3] = 2000 mg/kg, 72 h, dose level High, time 3 day
[4] = 2000 mg/kg, 120 h, dose level High, time 5 day

SMILES: CC1(C)S[C@@H]2[C@H](NC(=O)[C@H](N)c3ccccc3)C(=O)N2[C@H]1C(=O)O [AMPICILLIN]
- ABSOLUTE BASOPHIL [1]: 0 CELLS/uL
- ABSOLUTE EOSINOPHIL [1]: 0 CELLS/uL
- ABSOLUTE LYMPHOCYTE [1]: 16747 CELLS/uL
- ABSOLUTE MONOCYTE [1]: 205.33 CELLS/uL
- ABSOLUTE SEGMENTED NEUTROPHIL [1]: 2214.33 CELLS/uL
- BASOPHIL [1]: 0%
- EOSINOPHIL [1]: 0%
- ERYTHROCYTE COUNT [1]: 5.53 x10E6/uL
- HEMATOCRIT [1]: 34.2%
- HEMOGLOBIN [1]: 13.4 G/DL
- LEUKOCYTE COUNT [1]: 19.17 x10E3/uL
- LYMPHOCYTE [1]: 87.33%
- MEAN CORPUSCULAR HEMOGLOBIN [1]: 24.23 pg
- MEAN CORPUSCULAR HEMOGLOBIN CONCENTRATION [1]: 39.17 G/DL
- MEAN CORPUSCULAR VOLUME [1]: 61.9 fL
- MONOCYTE [1]: 1%
- NEUTROPHIL [1]: 11.67%
- NUCLEATED RED BLOOD CELLS [1]: 0 /100WBC
- PLATELET COUNT [1]: 1348.33 x10E3/uL
- ALANINE AMINOTRANSFERASE [1]: 47.67 u/L
- ALBUMIN [1]: 4.03 G/DL
- ALKALINE PHOSPHATASE [1]: 258.67 u/L
- ASPARTATE AMINOTRANSFERASE [1]: 88 u/L
- BLOOD UREA NITROGEN [1]: 17.67 mg/dL
- CARBON DIOXIDE [1]: 25.67 mmol/L
- CHLORIDE [1]: 101.33 MEQ/L
- CHOLESTEROL [1]: 82.67 mg/dL
- CREATINE PHOSPHOKINASE [1]: 507.67 u/L
- CREATININE [1]: 0.28 mg/dL
- GLUCOSE [1]: 170 mg/dL
- LACTATE DEHYDROGENASE [1]: 299.67 u/L
- LIPASE [1]: 9.33 u/L
- PHOSPHORUS [1]: 11.7 mg/dL
- POTASSIUM [1]: 6.51 MEQ/L
- SODIUM [1]: 143.9 MEQ/L
- TOTAL BILIRUBIN [1]: 0.17 mg/dL
- TOTAL PROTEIN [1]: 5.87 G/DL
- URIC ACID [1]: 2.2 mg/dL
- ABSOLUTE BASOPHIL [2]: 0 CELLS/uL
- ABSOLUTE EOSINOPHIL [2]: 67.33 CELLS/uL
- ABSOLUTE LYMPHOCYTE [2]: 16228 CELLS/uL
- ABSOLUTE MONOCYTE [2]: 111.33 CELLS/uL
- ABSOLUTE SEGMENTED NEUTROPHIL [2]: 1460 CELLS/uL
- BASOPHIL [2]: 0%
- EOSINOPHIL [2]: 0.33%
- ERYTHROCYTE COUNT [2]: 5.55 x10E6/uL
- HEMATOCRIT [2]: 34.3%
- HEMOGLOBIN [2]: 13.4 G/DL
- LEUKOCYTE COUNT [2]: 17.87 x10E3/uL
- LYMPHOCYTE [2]: 91%
- MEAN CORPUSCULAR HEMOGLOBIN [2]: 24.2 pg
- MEAN CORPUSCULAR HEMOGLOBIN CONCENTRATION [2]: 39.1 G/DL
- MEAN CORPUSCULAR VOLUME [2]: 61.93 fL
- MONOCYTE [2]: 0.67%
- NEUTROPHIL [2]: 8%
- NUCLEATED RED BLOOD CELLS [2]: 0 /100WBC
- PLATELET COUNT [2]: 1271.67 x10E3/uL
- ALANINE AMINOTRANSFERASE [2]: 58.33 u/L
- ALBUMIN [2]: 4.17 G/DL
- ALKALINE PHOSPHATASE [2]: 353 u/L
- ASPARTATE AMINOTRANSFERASE [2]: 84.33 u/L
- BLOOD UREA NITROGEN [2]: 16 mg/dL
- CARBON DIOXIDE [2]: 25.67 mmol/L
- CHLORIDE [2]: 103.33 MEQ/L
- CHOLESTEROL [2]: 80.33 mg/dL
- CREATINE PHOSPHOKINASE [2]: 323.67 u/L
- CREATININE [2]: 0.22 mg/dL
- GLUCOSE [2]: 150.33 mg/dL
- LACTATE DEHYDROGENASE [2]: 269.33 u/L
- LIPASE [2]: 10 u/L
- PHOSPHORUS [2]: 13 mg/dL
- POTASSIUM [2]: 6.3 MEQ/L
- SODIUM [2]: 143.7 MEQ/L
- TOTAL BILIRUBIN [2]: 0.13 mg/dL
- TOTAL PROTEIN [2]: 5.9 G/DL
- URIC ACID [2]: 1.67 mg/dL
- ABSOLUTE BASOPHIL [3]: 0 CELLS/uL
- ABSOLUTE EOSINOPHIL [3]: 156 CELLS/uL
- ABSOLUTE LYMPHOCYTE [3]: 12938 CELLS/uL
- ABSOLUTE MONOCYTE [3]: 42 CELLS/uL
- ABSOLUTE SEGMENTED NEUTROPHIL [3]: 1064 CELLS/uL
- BASOPHIL [3]: 0%
- EOSINOPHIL [3]: 1.33%
- ERYTHROCYTE COUNT [3]: 5.68 x10E6/uL
- HEMATOCRIT [3]: 35.27%
- HEMOGLOBIN [3]: 13.93 G/DL
- LEUKOCYTE COUNT [3]: 14.2 x10E3/uL
- LYMPHOCYTE [3]: 90.33%
- MEAN CORPUSCULAR HEMOGLOBIN [3]: 24.53 pg
- MEAN CORPUSCULAR HEMOGLOBIN CONCENTRATION [3]: 39.5 G/DL
- MEAN CORPUSCULAR VOLUME [3]: 62.13 fL
- MONOCYTE [3]: 0.33%
- NEUTROPHIL [3]: 8%
- NUCLEATED RED BLOOD CELLS [3]: 0 /100WBC
- PLATELET COUNT [3]: 1229.33 x10E3/uL
- ALANINE AMINOTRANSFERASE [3]: 60 u/L
- ALBUMIN [3]: 4.2 G/DL
- ALKALINE PHOSPHATASE [3]: 309 u/L
- ASPARTATE AMINOTRANSFERASE [3]: 77.67 u/L
- BLOOD UREA NITROGEN [3]: 18 mg/dL
- CARBON DIOXIDE [3]: 32 mmol/L
- CHLORIDE [3]: 100.67 MEQ/L
- CHOLESTEROL [3]: 94.33 mg/dL
- CREATINE PHOSPHOKINASE [3]: 141 u/L
- CREATININE [3]: 0.18 mg/dL
- GLUCOSE [3]: 140 mg/dL
- LACTATE DEHYDROGENASE [3]: 104 u/L
- LIPASE [3]: 9.67 u/L
- PHOSPHORUS [3]: 11.33 mg/dL
- POTASSIUM [3]: 6.92 MEQ/L
- SODIUM [3]: 144.13 MEQ/L
- TOTAL BILIRUBIN [3]: 0.17 mg/dL
- TOTAL PROTEIN [3]: 6 G/DL
- URIC ACID [3]: 1.43 mg/dL
- ABSOLUTE BASOPHIL [4]: 0 CELLS/uL
- ABSOLUTE EOSINOPHIL [4]: 45.67 CELLS/uL
- ABSOLUTE LYMPHOCYTE [4]: 13556.33 CELLS/uL
- ABSOLUTE MONOCYTE [4]: 151.67 CELLS/uL
- ABSOLUTE SEGMENTED NEUTROPHIL [4]: 1413 CELLS/uL
- BASOPHIL [4]: 0%
- EOSINOPHIL [4]: 0.33%
- ERYTHROCYTE COUNT [4]: 5.47 x10E6/uL
- HEMATOCRIT [4]: 33.33%
- HEMOGLOBIN [4]: 13.37 G/DL
- LEUKOCYTE COUNT [4]: 15.17 x10E3/uL
- LYMPHOCYTE [4]: 88.67%
- MEAN CORPUSCULAR HEMOGLOBIN [4]: 24.47 pg
- MEAN CORPUSCULAR HEMOGLOBIN CONCENTRATION [4]: 40.1 G/DL
- MEAN CORPUSCULAR VOLUME [4]: 60.97 fL
- MONOCYTE [4]: 1%
- NEUTROPHIL [4]: 10%
- NUCLEATED RED BLOOD CELLS [4]: 0 /100WBC
- PLATELET COUNT [4]: 1262.67 x10E3/uL
- ALANINE AMINOTRANSFERASE [4]: 63.33 u/L
- ALBUMIN [4]: 4.13 G/DL
- ALKALINE PHOSPHATASE [4]: 352 u/L
- ASPARTATE AMINOTRANSFERASE [4]: 99 u/L
- BLOOD UREA NITROGEN [4]: 19.33 mg/dL
- CARBON DIOXIDE [4]: 24 mmol/L
- CHLORIDE [4]: 106.67 MEQ/L
- CHOLESTEROL [4]: 73 mg/dL
- CREATINE PHOSPHOKINASE [4]: 430.33 u/L
- CREATININE [4]: 0.2 mg/dL
- GLUCOSE [4]: 150.33 mg/dL
- LACTATE DEHYDROGENASE [4]: 413.67 u/L
- LIPASE [4]: 9.67 u/L
- PHOSPHORUS [4]: 11.63 mg/dL
- POTASSIUM [4]: 6.95 MEQ/L
- SODIUM [4]: 148.53 MEQ/L
- TOTAL BILIRUBIN [4]: 0.17 mg/dL
- TOTAL PROTEIN [4]: 6.03 G/DL
- URIC ACID [4]: 1.6 mg/dL
